Results published in US9914730B2, “Azaquinazoline inhibitors of Atypical protein Kinase C” (Ignyta, Inc., priority 2012, dated 2018).
Where a name gives a salt, the structure may show the parent alone.

Molecular target: T1, full-length human PKCι (Homo sapiens, UniProt P41743)
T1 construct: Recombinant, full-length human PKCι expressed in Sf21 insect cells is also commercially available; purchased; host or cells: Sf21 insect cells
T1 sequence (P41743 1-596): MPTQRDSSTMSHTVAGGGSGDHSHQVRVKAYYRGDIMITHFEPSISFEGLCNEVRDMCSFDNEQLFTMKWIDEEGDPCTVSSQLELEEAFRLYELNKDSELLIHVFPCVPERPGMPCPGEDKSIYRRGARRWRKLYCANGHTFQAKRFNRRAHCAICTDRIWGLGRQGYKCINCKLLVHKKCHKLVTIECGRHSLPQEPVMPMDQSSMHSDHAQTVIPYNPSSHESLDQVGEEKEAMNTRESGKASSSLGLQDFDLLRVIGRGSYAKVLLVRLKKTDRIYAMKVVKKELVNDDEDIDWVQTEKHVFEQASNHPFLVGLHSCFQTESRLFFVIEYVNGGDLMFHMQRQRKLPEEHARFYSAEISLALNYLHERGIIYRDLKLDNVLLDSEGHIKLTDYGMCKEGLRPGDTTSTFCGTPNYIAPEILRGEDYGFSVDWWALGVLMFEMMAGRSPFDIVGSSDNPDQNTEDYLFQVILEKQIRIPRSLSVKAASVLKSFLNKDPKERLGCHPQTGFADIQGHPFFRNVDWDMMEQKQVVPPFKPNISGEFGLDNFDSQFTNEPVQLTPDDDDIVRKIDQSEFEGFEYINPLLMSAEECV
Assay: PKCι IC50 IMAP assay, full-length PKCι at 150 μM ATP
Format: biochemical
Conditions: read-out: IC50 in IMAP assay against full length PKCi at 150 μM ATP
Outline: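 Phosphorylation of a 5FAM-tagged PKCε pseudopeptide-derived substrate (100 nM) by full-length recombinant human PKCι was monitored by IMAP fluorescence polarisation. ATP was held at 150 μM, five times its apparent KM, with 60 min room-temperature incubation.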

Row | Compound | IC50 [µM]
1 | CN1CCC(N(C)c2nc(-c3ccnc(Nc4ncc(F)cc4F)c3)nc3cncc(C4CC4)c23)CC1 [Example 2129, {5-Cyclopropyl-2-[2-(3,5-difluoro-pyridin-2-ylamino)-pyridin-4-yl]-pyrido[3,4-d]pyrimidin-4-yl}-methyl-(1-methyl-piperidin-4-yl)-amine] | < 0.1
2 | COc1cncc2nc(-c3ccnc(Nc4ccccc4)c3)nc(N3CCC(O)C(O)C3)c12 (single isomer, unassigned) [Example 457, (3R,4R)-1-[5-Methoxy-2-(2-phenylamino-pyridin-4-yl)-pyrido[3,4-d]pyrimidin-4-yl]-piperidine-3,4-diol or (3S,4S)-1-[5-Methoxy-2-(2-phenylamino-pyridin-4-yl)-pyrido[3,4-d]pyrimidin-4-yl]-piperidine-3,4-diol] | 0.1 to 1
3 | Nc1ccccc1C(=O)Nc1cc(-c2nc(N[C@@H]3CCNC3)c3ccncc3n2)ccn1 [Example 303, 2-Amino-N-{4-[4-((R)-pyrrolidin-3-ylamino)-pyrido[3,4-d]pyrimidin-2-yl]-pyridin-2-yl}-benzamide] | 0.1 to 1
4 | Fc1nc(C2CC2)ccc1Nc1cc(-c2nc(N3CCNCC3)c3c(C4CC4)cncc3n2)ccn1 [Example 725, (6-Cyclopropyl-2-fluoro-pyridin-3-yl)-[4-(5-cyclopropyl-4-piperazin-1-yl-pyrido[3,4-d]pyrimidin-2-yl)-pyridin-2-yl]-amine; bis-trifluoroacetic acid salt] | < 0.1
5 | COc1cncc2nc(-c3ccnc(Nc4cnccn4)c3)nc(N[C@@H]3CCNC3)c12 [Example 239, {5-Methoxy-2-[2-(pyrazin-2-ylamino)-pyridin-4-yl]-pyrido[3,4-d]pyrimidin-4-yl}-(R)-pyrrolidin-3-yl-amine] | < 0.1
6 | CCn1cc(Cl)c(Nc2cc(-c3nc(N4CCNC(C)(C)C4)c4c(C5CC5)cncc4n3)ccn2)n1 [Example 2043, (4-Chloro-1-ethyl-1H-pyrazol-3-yl)-{4-[5-cyclopropyl-4-(3,3-dimethyl-piperazin-1-yl)-pyrido[3,4-d]pyrimidin-2-yl]-pyridin-2-yl}-amine] | < 0.1
7 | COc1cncc2nc(-c3ccnc(Nc4ccc(F)cc4F)c3)nc(N3CCNCC3)c12 [Example 453, (2,4-Difluoro-phenyl)-[4-(5-methoxy-4-piperazin-1-yl-pyrido[3,4-d]pyrimidin-2-yl)-pyridin-2-yl]-amine] | < 0.1
8 | COc1cncc2nc(-c3ccnc(Nc4ccccc4)c3)nc(N3CCN(CCO)CC3)c12 [Example 432, 2-{4-[5-Methoxy-2-(2-phenylamino-pyridin-4-yl)-pyrido[3,4-d]pyrimidin-4-yl]-piperazin-1-yl}-ethanol] | 0.1 to 1
9 | c1ccc(Nc2cc(-c3nc(N4CCNCC4)c4c(C5CCC5)cncc4n3)ccn2)cc1 [Example 619, [4-(5-Cyclobutyl-4-piperazin-1-yl-pyrido[3,4-d]pyrimidin-2-yl)-pyridin-2-yl]-phenyl-amine] | < 0.1
10 | COc1cncc2nc(-c3ccnc(Nc4ccccc4)c3)nc(N3CCN4C(=O)OC[C@H]4C3)c12 [Example 435, (R)-7-[5-Methoxy-2-(2-phenylamino-pyridin-4-yl)-pyrido[3,4-d]pyrimidin-4-yl]-hexahydro-oxazolo[3,4-a]pyrazin-3-one] | 0.1 to 1
11 | OCC1CCN(c2nc(-c3ccnc4[nH]c(C(F)(F)F)cc34)nc3cncc(C4CC4)c23)CC1 [Example 1242, {1-[5-Cyclopropyl-2-(2-trifluoromethyl-1H-pyrrolo[2,3-b]pyridin-4-yl)-pyrido[3,4-d]pyrimidin-4-yl]-piperidin-4-yl}-methanol] | 1 to 10
12 | COC(=O)C1CN(c2nc(-c3ccncc3)nc3cncc(OC)c23)CCN1 (centres unmarked) [Example 155, 4-(5-Methoxy-2-pyridin-4-yl-pyrido[3,4-d]pyrimidin-4-yl)-piperazine-2-carboxylic acid methyl ester] | 1 to 10
13 | FC(F)(F)c1cc2c(-c3nc(NC4CCNC4)c4c(C5CC5)cncc4n3)ccnc2[nH]1 (stereo in doubt) [Example 2069, [5-Cyclopropyl-2-(2-trifluoromethyl-1H-pyrrolo[2,3-b]pyridin-4-yl)-pyrido[3,4-d]pyrimidin-4-yl]-(R)-pyrrolidin-3-yl-amine] | < 0.1
14 | COc1cncc2nc(-c3ccnc(Nc4cc(C#N)ccn4)c3)nc(N3CCOCC3)c12 [Example 388, 2-[4-(5-Methoxy-4-morpholin-4-yl-pyrido[3,4-d]pyrimidin-2-yl)-pyridin-2-ylamino]-isonicotinonitrile] | 10 to 40
15 | Clc1cccc(Cl)c1Nc1cc(-c2nc(N3CCNCC3)c3c(C4CC4)cncc3n2)ccn1 [Example 539, [4-(5-Cyclopropyl-4-piperazin-1-yl-pyrido[3,4-d]pyrimidin-2-yl)-pyridin-2-yl]-(2,6-dichloro-phenyl)-amine] | < 0.1
16 | N#C[C@H]1CN(c2nc(-c3ccnc(Nc4c(F)cccc4F)c3)nc3cncc(C4CC4)c23)CCN1 [Example 788, (R)-4-{5-Cyclopropyl-2-[2-(2,6-difluoro-phenylamino)-pyridin-4-yl]-pyrido[3,4-d]pyrimidin-4-yl}-piperazine-2-carbonitrile] | 0.1 to 1
17 | CC(C)C(=O)Nc1cc(-c2nc(N3CCNCC3)c3c(C4CC4)cncc3n2)ccn1 [Example 583, N-[4-(5-Cyclopropyl-4-piperazin-1-yl-pyrido[3,4-d]pyrimidin-2-yl)-pyridin-2-yl]-isobutyramide] | < 0.1
18 | CC[C@H]1CN(c2nc(-c3ccncc3)nc3cnccc23)CCN1 [Example 61, (3S)-3-ethyl-1-[2-(pyridin-4-yl)-pyrido[3,4-d]-pyrimidin-4-yl]-piperazine] | 1 to 10
19 | N#CC[C@H]1CN(c2nc(-c3ccnc4[nH]ccc34)nc3cncc(C4CC4)c23)CCN1 [Example 1221, {(S)-4-[5-Cyclopropyl-2-(1H-pyrrolo[2,3-b]pyridin-4-yl)-pyrido[3,4-d]pyrimidin-4-yl]-piperazin-2-yl}-acetonitrile] | < 0.1
20 | c1cc(-c2nccc3c(N[C@@H]4CCNC4)nc(N4CCOCC4)nc23)[nH]n1 [Example 1012, [2-Morpholin-4-yl-8-(2H-pyrazol-3-yl)-pyrido[3,4-d]pyrimidin-4-yl]-(R)-pyrrolidin-3-yl-amine] | 1 to 10
21 | C[C@@H](Nc1cc(-c2nc(N3CCNCC3)c3c(C4CC4)cncc3n2)ccn1)c1nc(F)ccc1F [Example 802, [4-(5-Cyclopropyl-4-piperazin-1-yl-pyrido[3,4-d]pyrimidin-2-yl)-pyridin-2-yl]-[(R)-1-(3,6-difluoro-pyridin-2-yl)-ethyl]-amine] | < 0.1
22 | c1ccc2c(Nc3cc(-c4nc(N5CCNCC5)c5c(C6CC6)cncc5n4)ccn3)cccc2c1 [Example 2059, [4-(5-Cyclopropyl-4-piperazin-1-yl-pyrido[3,4-d]pyrimidin-2-yl)-pyridin-2-yl]-naphthalen-1-yl-amine] | < 0.1
23 | Fc1ccc(Nc2cc(-c3nc(N4CCNCC4)c4c(C5CC5)cncc4n3)ccn2)cc1 [Example 594, [4-(5-Cyclopropyl-4-piperazin-1-yl-pyrido[3,4-d]pyrimidin-2-yl)-pyridin-2-yl]-(4-fluoro-phenyl)-amine] | < 0.1
24 | N[C@H](CNc1nc(-c2ccncc2)nc2c(-c3cccnc3)nccc12)Cc1ccccc1 [Example 99, N-[(2S)-2-amino-3-phenylpropyl]-8-(pyridin-3-yl)-2-(pyridin-4-yl)pyrido[3,4-d]pyrimidin-4-amine] | 0.1 to 1
25 | Cc1cccc(C)c1Nc1cc(-c2nc(N3CCNCC3)c3c(C4CC4)cncc3n2)ccn1 [Example 541, [4-(5-Cyclopropyl-4-piperazin-1-yl-pyrido[3,4-d]pyrimidin-2-yl)-pyridin-2-yl]-(2,6-dimethyl-phenyl)-amine] | < 0.1
26 | Cc1ccc(Cl)c(Nc2cc(-c3nc(N4CCNCC4)c4c(C5CC5)cncc4n3)ccn2)c1 [Example 577, (2-Chloro-5-methyl-phenyl)-[4-(5-cyclopropyl-4-piperazin-1-yl-pyrido[3,4-d]pyrimidin-2-yl)-pyridin-2-yl]-Amine] | < 0.1
27 | C[C@@H]1CN(c2nc(-c3ccnc(Nc4nc(F)cc(F)c4F)c3)nc3cncc(C4CC4)c23)C[C@H](C)N1 [Example 2037, {4-[5-Cyclopropyl-4-((cis)-3,5-dimethyl-piperazin-1-yl)-pyrido[3,4-d]pyrimidin-2-yl]-pyridin-2-yl}-(3,4,6-trifluoro-pyridin-2-yl)-amine] | < 0.1
28 | FC(F)c1cc2c(-c3nc(N4CCNCC4)c4c(C5CC5)cncc4n3)ccnc2[nH]1 [Example 2106, 5-Cyclopropyl-2-(2-difluoromethyl-1H-pyrrolo[2,3-b]pyridin-4-yl)-4-piperazin-1-yl-pyrido[3,4-d]pyrimidine] | < 0.1
29 | C[C@H]1CN(c2nc(-c3ccnc(Nc4c(F)cccc4F)c3)nc3cncc(C4CC4)c23)CCN1 [Example 692, {4-[5-Cyclopropyl-4-((S)-3-methyl-piperazin-1-yl)-pyrido[3,4-d]pyrimidin-2-yl]-pyridin-2-yl}-(2,6-difluoro-phenyl)-amine] | < 0.1
